# According to patent US7025958B2, “Use of amidoamines to treat or prevent acanthamoeba and fungal infections” (Alcon, Inc., priority 2000, dated 2006):
# Assays:
# Type in all cases: cell-based
# [1] = test system: F. solani ATCC 36031; assay: Dose/response of survivors against fungi, F. solani
# Experimental: (§1) A 0.1% stock solution of Compound No. 4 was prepared. The compound was dissolved in TRIS buffer^1 by gently heating and swirling. The final pH was adjusted to 7.8 with 1N HCl. […] To prepare the samples, a 0.1% stock solution of Compound No. 4 was serially diluted in Mueller Hinton Broth (MHB)^2,3 (BBL) to provide solutions containing Compound No. 4 in concentrations of 0.01 w/v %, 0.001 w/v %, 0.0001 w/v %, and 0.00001 w/v %, respectively. Solutions containing 0.02 w/v % PHMB and 0.1 w/v % chlorhexidine, respectively, were utilized as controls.
# (§2) The samples were inoculated with low levels (approximately 1.0×10^3 organisms/mL) of the test organism. The test organisms included the fungi C. albicans ATCC 10231 and F. solani ATCC 36031. The samples were checked for survivors at 4, 24, and 48 hours post inoculation. The samples were serially diluted in Dey Engley neutralizing broth (DE) (Difco) and plated in duplicate using trypicase soy agar containing 0.07% asolectin and 0.5% Tween 80. The plates were incubated for 5 days at 20-25° C. and plate counts recorded.
# [2] = test system: Acanthamoeba Strain Ros (NNA cysts); assay: Minimum cysticidal concentration, strain Ros; conditions: 24 hours exposure at 32° C.
# Experimental: (§3) Two different vehicles were utilized to prepare solutions containing Compound No. 4. The first vehicle was the same as the vehicle described in Formulation No. 4 (see Example 2, above), and the second vehicle was a 2 mM TRIS. HCl solution (pH 7.8).
# (§4) Minimum cysticidal levels of Compound No. 4 for Acanthamoeba keratitis strains was determined as follows. Briefly, 100 μl serial, two-fold dilutions were prepared across the rows of a microtitre plate. Control wells received only diluent. An equal volume of five strains of Acanthamoba cysts were added to the wells and the plates sealed and incubated at 32° C. for 24 hours. Using a multi-channel pipette, the solutions in the wells were removed and replaced with 200 μl of ¼ strength Lactated Ringer's solution and left at room temperature for 15 minutes. The washing procedure was repeated twice more before finally filling the wells with 100 μl of ¼ strength Lactated Ringer's solution containing live E. coli at an O.D.540 of 0.2. The plates were then sealed and incubated at 32° C. for up to 7 days.
# (§5) The MCC values for Compound No. 4 and chlorhexidine against the five Acanthamoeba strains (NNA cysts) tested are set forth in Table 4, below.
# [3] = test system: Acanthamoeba Strain 1501-3D (NNA cysts); assay: Minimum cysticidal concentration, strain 1501-3D; conditions: 24 hours exposure at 32° C.
# Experimental: as §3, §4, §5
# [4] = test system: Acanthamoeba Strain Watson (NNA cysts); assay: Minimum cysticidal concentration, strain Watson; conditions: 24 hours exposure at 32° C.
# Experimental: as §3, §4, §5
# [5] = test system: Acanthamoeba polyphaga cysts (ATCC 30871); assay: Dose/response of survivors, Acanthamoeba polyphaga cysts in Mueller Hinton Broth
# Experimental: A 0.1% stock solution of Compound No. 4 was prepared. The compound was dissolved in TRIS buffer^1 by gently heating and swirling. The final pH was adjusted to 7.8 with 1N HCl. […] To prepare the samples, a 0.1% stock solution of Compound No. 4 was serially diluted in Mueller Hinton Broth (MHB)^2,3 (BBL) to provide concentrations of 0.01 w/v %, 0.001 w/v %, 0.0001 w/v %, and 0.00001 w/v %, respectively. Solutions containing 0.02 w/v % polyhexamethylene biguanide (PHMP) and 0.1 w/v % chlorhexidine, respectively, were also utilized as controls.
# The samples were inoculated with low levels (approximately 3.0×10^2 organisms/mL) of the test organism. The test organism was Acanthamoeba polyphaga cysts (ATCC 30871) produced 14 days in. PYG and then 14 days in Page's saline, followed by one month of refrigeration. The samples were checked for survivors at 4, 24, and 48 hours post inoculation. The samples were serially diluted in Dey-Engley neutralizing broth (DE) (Difco) and plated in quadruplicate in tissue culture plate wells containing non-nutrient agar overlaid with E. coli. Plates were sealed and incubated for 14 days at 30-35° C. Results were recorded and counts calculated using the Reed and Muench computation.
# [6] = test system: Acanthamoeba Strain 1501-2g (NNA cysts); assay: Minimum cysticidal concentration, strain 1501-2g; conditions: 24 hours exposure at 32° C.
# Experimental: as §3, §4, §5
# [7] = test system: C. albicans ATCC 10231; assay: Dose/response of survivors against fungi, C. albicans
# Experimental: as §1, §2
# [8] = test system: Acanthamoeba Strain Uni Tap Water 1501-3D (NNA cysts); assay: Minimum cysticidal concentration, strain Uni Tap Water 1501-3D; conditions: 24 hours exposure at 32° C.
# Experimental: as §3, §4, §5
# [9] = 0.00001% Compound No. 4, 0 hours
# [10] = 0.00001% Compound No. 4, 4 hours
# [11] = 0.00001% Compound No. 4, 24 hours
# [12] = 0.00001% Compound No. 4, 48 hours
# [13] = 0.0001% Compound No. 4, 0 hours
# [14] = 0.0001% Compound No. 4, 4 hours
# [15] = 0.0001% Compound No. 4, 24 hours
# [16] = 0.0001% Compound No. 4, 48 hours
# [17] = 0.001% Compound No. 4, 24 hours
# [18] = 0.001% Compound No. 4, 48 hours
compound,measurement,setting,value
"[H]/N=C(\N/C(=N/[H])NCCCCCCNC(=N)NC(=N)Nc1ccc(Cl)cc1)Nc1ccc(Cl)cc1 [Chlorhexidine, chlorhexidine, reference compound]",Number of Surviving Organisms,"[1]; 0.1% Chlorhexidine, 0 hours",4.9 × 10^3
same,Number of Surviving Organisms,"[1]; 0.1% Chlorhexidine, 4 hours",<1
same,Number of Surviving Organisms,"[1]; 0.1% Chlorhexidine, 24 hours",<1
same,Number of Surviving Organisms,"[1]; 0.1% Chlorhexidine, 48 hours",<1
same,Minimum Cysticidal Concentration,[2],31.25 micrograms/milliliter
same,Minimum Cysticidal Concentration,[3],31.3 micrograms/milliliter
same,Minimum Cysticidal Concentration,[4],62.5 micrograms/milliliter
same,Number of Surviving Organisms,"[5]; 0.1% Chlorhexidine, 0 hrs",3.2 × 10^2
same,Number of Surviving Organisms,"[5]; 0.1% Chlorhexidine, 4 hrs",<10
same,Number of Surviving Organisms,"[5]; 0.1% Chlorhexidine, 24 hrs",<10
same,Number of Surviving Organisms,"[5]; 0.1% Chlorhexidine, 48 hrs",<10
same,Minimum Cysticidal Concentration,[6],52.1 micrograms/milliliter
same,Number of Surviving Organisms,"[7]; 0.1% Chlorhexidine, 0 hours",3.3 × 10^3
same,Number of Surviving Organisms,"[7]; 0.1% Chlorhexidine, 4 hours",<1
same,Number of Surviving Organisms,"[7]; 0.1% Chlorhexidine, 24 hours",<1
same,Number of Surviving Organisms,"[7]; 0.1% Chlorhexidine, 48 hours",<1
same,Minimum Cysticidal Concentration,[8],26.0 micrograms/milliliter
"CCCCCCCCCCCCCC(=O)NCCCN(C)C [Compound No. 4, N,N-Dimethyl-N′-tetradecanoyl-1,3-propylenediamine]",Number of Surviving Organisms,[1]; [9],4.9 × 10^3
same,Number of Surviving Organisms,[1]; [10],5.9 × 10^3
same,Number of Surviving Organisms,[1]; [11],1.0 × 10^4
same,Number of Surviving Organisms,[1]; [12],4.8 × 10^3
same,Number of Surviving Organisms,[1]; [13],4.9 × 10^3
same,Number of Surviving Organisms,[1]; [14],6.9 × 10^3
same,Number of Surviving Organisms,[1]; [15],9.5 × 10^3
same,Number of Surviving Organisms,[1]; [16],1.6 × 10^4
same,Number of Surviving Organisms,"[1]; 0.001% Compound No. 4, 0 hours",4.9 × 10^3
same,Number of Surviving Organisms,"[1]; 0.001% Compound No. 4, 4 hours",1.0 × 10^1
same,Number of Surviving Organisms,[1]; [17],<1
same,Number of Surviving Organisms,[1]; [18],<1
same,Number of Surviving Organisms,"[1]; 0.01% Compound No. 4, 0 hours",4.9 × 10^3
same,Number of Surviving Organisms,"[1]; 0.01% Compound No. 4, 4 hours",<1
same,Number of Surviving Organisms,"[1]; 0.01% Compound No. 4, 24 hours",<1
same,Number of Surviving Organisms,"[1]; 0.01% Compound No. 4, 48 hours",<1
same,Number of Surviving Organisms,"[5]; 0.00001% Compound No. 4, 0 hrs",3.2 × 10^2
same,Number of Surviving Organisms,"[5]; 0.00001% Compound No. 4, 4 hrs",3.2 × 10^3
same,Number of Surviving Organisms,"[5]; 0.00001% Compound No. 4, 24 hrs",3.2 × 10^3
same,Number of Surviving Organisms,"[5]; 0.00001% Compound No. 4, 48 hrs",3.2 × 10^3
same,Number of Surviving Organisms,"[5]; 0.0001% Compound No. 4, 0 hrs",3.2 × 10^2
same,Number of Surviving Organisms,"[5]; 0.0001% Compound No. 4, 4 hrs",3.2 × 10^3
same,Number of Surviving Organisms,"[5]; 0.0001% Compound No. 4, 24 hrs",2.1 × 10^3
same,Number of Surviving Organisms,"[5]; 0.0001% Compound No. 4, 48 hrs",2.1 × 10^3
same,Number of Surviving Organisms,"[5]; 0.001% Compound No. 4, 0 hrs",3.2 × 10^2
same,Number of Surviving Organisms,"[5]; 0.001% Compound No. 4, 4 hrs",3.2 × 10^2
same,Number of Surviving Organisms,"[5]; 0.001% Compound No. 4, 24 hrs",1.7 × 10^1
same,Number of Surviving Organisms,"[5]; 0.001% Compound No. 4, 48 hrs",<10
same,Number of Surviving Organisms,"[5]; 0.01% Compound No. 4, 0 hrs",3.2 × 10^2
same,Number of Surviving Organisms,"[5]; 0.01% Compound No. 4, 4 hrs",<10
same,Number of Surviving Organisms,"[5]; 0.01% Compound No. 4, 24 hrs",<10
same,Number of Surviving Organisms,"[5]; 0.01% Compound No. 4, 48 hrs",<10
same,Number of Surviving Organisms,[7]; [9],3.3 × 10^3
same,Number of Surviving Organisms,[7]; [10],3.2 × 10^3
same,Number of Surviving Organisms,[7]; [11],2.5 × 10^4
same,Number of Surviving Organisms,[7]; [12],1.3 × 10^5
same,Number of Surviving Organisms,[7]; [13],3.3 × 10^3
same,Number of Surviving Organisms,[7]; [14],3.2 × 10^3
same,Number of Surviving Organisms,[7]; [15],1.5 × 10^4
same,Number of Surviving Organisms,[7]; [16],1.3 × 10^5
same,Number of Surviving Organisms,"[7]; 0.001% Compound No. 4, 0 hours",3.3 × 10^3
same,Number of Surviving Organisms,"[7]; 0.001% Compound No. 4, 4 hours",4.3 × 10^1
same,Number of Surviving Organisms,[7]; [17],1.0 × 10^1
same,Number of Surviving Organisms,[7]; [18],3.4 × 10^1
same,Number of Surviving Organisms,"[7]; 0.01% Compound No. 4, 0 hours",3.3 × 10^3
same,Number of Surviving Organisms,"[7]; 0.01% Compound No. 4, 4 hours",<1
same,Number of Surviving Organisms,"[7]; 0.01% Compound No. 4, 24 hours",<1
same,Number of Surviving Organisms,"[7]; 0.01% Compound No. 4, 48 hours",<1
"polyhexamethylene biguanide [PHMB, reference compound]",Number of Surviving Organisms,"[1]; 0.02% PHMB, 0 hours",4.9 × 10^3
same,Number of Surviving Organisms,"[1]; 0.02% PHMB, 4 hours",<1
same,Number of Surviving Organisms,"[1]; 0.02% PHMB, 24 hours",<1
same,Number of Surviving Organisms,"[1]; 0.02% PHMB, 48 hours",<1
same,Number of Surviving Organisms,"[5]; 0.02% PHMB, 0 hrs",3.2 × 10^2
same,Number of Surviving Organisms,"[5]; 0.02% PHMB, 4 hrs",<10
same,Number of Surviving Organisms,"[5]; 0.02% PHMB, 24 hrs",<10
same,Number of Surviving Organisms,"[5]; 0.02% PHMB, 48 hrs",<10
same,Number of Surviving Organisms,"[7]; 0.02% PHMB, 0 hours",3.3 × 10^3
same,Number of Surviving Organisms,"[7]; 0.02% PHMB, 4 hours",<1
same,Number of Surviving Organisms,"[7]; 0.02% PHMB, 24 hours",<1
same,Number of Surviving Organisms,"[7]; 0.02% PHMB, 48 hours",<1
